# Laboratory results as given in patent US11566007B2, “Ras inhibitors” (Revolution Medicines, Inc., priority 2019, dated 2023).
# Tested on: NCI-H358 (K-Ras G12C)
# Test: CellTiter-Glo cell viability assay, NCI-H358
# Format: cell-based, human
# Details: Homo sapiens, NCI-H358, 120 h, NCI-H358, 5-day treatment; class symbols; read-out: Additional H358 Cell Viability assay data (K-Ras G12C, IC50)
# How it was run: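 Viability measured by CellTiter-Glo luminescence on day 5 following direct addition of compound to plated cells. Values expressed as percent of mean DMSO signal; curves fitted with a four-parameter logistic model.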
row,SMILES,IC50 [µM]
1,"C=CC(=O)Nc1ccc(C(=O)N(C)[C@H](C(=O)N[C@H]2Cc3cc(O)cc(c3)-c3ccc4c(c3)c(c(-c3cccnc3[C@H](C)OC)n4CC)CC(C)(C)COC(=O)[C@@H]3CCCN(N3)C2=O)C(C)C)nc1 (atropisomer, axis not shown) [Example A252]",0.01 to 0.1
2,"C=CC(=O)N1CCN(C(=O)N(C)[C@H](C(=O)N[C@H]2Cc3cc(O)cc(c3)-c3ccc4c(c3)c(c(-c3cccnc3[C@H](C)OC)n4CC)CC(C)(C)COC(=O)[C@@H]3CCCN(N3)C2=O)C(C)C)CC1 (atropisomer, axis not shown) [Example A262]",0.01 to 0.1
3,"C=CS(=O)(=O)N1CC2(CCN([C@H](C(=O)N[C@H]3Cc4cc(O)cc(c4)-c4ccc5c(c4)c(c(-c4cccnc4[C@H](C)OC)n5CC)CC(C)(C)COC(=O)[C@@H]4CCCN(N4)C3=O)C(C)C)C2=O)C1 (atropisomer, axis not shown) [Example A297]",0.01 to 0.1
4,"C=CC(=O)N1CC[C@H](C(=O)N(C)[C@H](C(=O)N[C@H]2Cc3cccc(c3)-c3ccc4c(c3)c(c(-c3cccnc3[C@H](C)OC)n4CC(F)(F)F)CC(C)(C)COC(=O)[C@@H]3CCCN(N3)C2=O)C(C)C)C1 (atropisomer, axis not shown) [Example A332]",< 0.01
5,"C=CC(=O)N1CC[C@H](C(=O)N(C)[C@H](C(=O)N[C@H]2Cc3cc(F)cc(c3)-c3ccc4c(c3)c(c(-c3cccnc3[C@H](C)OC)n4CC)CC(C)(C)COC(=O)[C@@H]3CCCN(N3)C2=O)C(C)C)C1 (atropisomer, axis not shown) [Example A342]",0.01 to 0.1
6,"CCn1c(-c2cccnc2[C@H](C)OC)c2c3cc(ccc31)-c1cccc(c1)C[C@H](NC(=O)[C@@H](COC1CN(C(=O)C#CC(C)(C)N3CCC3)C1)C(C)C)C(=O)N1CCC[C@H](N1)C(=O)OCC(C)(C)C2 (atropisomer, axis not shown) [Example A346]",< 0.01
7,"CO[C@@H](C)c1ncccc1-c1c2c3cc(ccc3n1CC(F)(F)F)-c1cc(F)cc(c1)C[C@H](NC(=O)[C@@H](COC1CN(C(=O)C#CC(C)(C)N(C)C)C1)C(C)C)C(=O)N1CCC[C@H](N1)C(=O)OCC(C)(C)C2 (atropisomer, axis not shown) [Example A348]",< 0.01
8,"CCn1c(-c2cccnc2[C@H](C)OC)c2c3cc(ccc31)-c1cccc(c1)C[C@H](NC(=O)[C@H](C(C)C)N1CO[C@]3(CCN(C(=O)C#CC(C)(C)N4CCC4)C3)C1=O)C(=O)N1CCC[C@H](N1)C(=O)OCC(C)(C)C2 (atropisomer, axis not shown) [Example A351]",< 0.01
9,"C=CC(=O)N1CC[C@@]2(CCN(C(=O)N(C)[C@H](C(=O)N[C@H]3Cc4nc(cs4)-c4ccc5c(c4)c(c(-c4cccnc4[C@H](C)OC)n5CC)CC(C)(C)COC(=O)[C@@H]4CCCN(N4)C3=O)C(C)C)C2)C1 (atropisomer, axis not shown) [Example A367]",0.01 to 0.1
10,"C=CC(=O)N(C)CC1CN(C(=O)N(C)[C@H](C(=O)N[C@H]2Cc3nc(cs3)-c3ccc4c(c3)c(c(-c3cccnc3[C@H](C)OC)n4CC)CC(C)(C)COC(=O)[C@@H]3CCCN(N3)C2=O)C(C)C)C1 (atropisomer, axis not shown) [Example A368]",< 0.01
11,"C=CC(=O)N1CC[C@]2(C1)OCN([C@H](C(=O)N[C@H]1Cc3cccc(c3)-c3ccc4c(c3)c(c(-c3cccnc3[C@H](C)OC)n4CC)CC(C)(C)COC(=O)[C@@H]3CCCN(N3)C1=O)C(C)C)C2=O (atropisomer, axis not shown) [Example A371]",< 0.01
12,"CO[C@@H](C)c1ncccc1-c1c2c3cc(ccc3n1CC(F)(F)F)N1CCO[C@@H](C[C@H](NC(=O)[C@@H](COC3CN(C(=O)C#CC(C)(C)N(C)C)C3)C(C)C)C(=O)N3CCC[C@H](N3)C(=O)OCC(C)(C)C2)C1 (atropisomer, axis not shown) [Example A375, (2R)-2-(((1-(4-(dimethylamino)-4-methylpent-2-ynoyl)azetidin-3-yl)oxy)methyl)-N-((2^2S,6^3S,4S)-1^2-(2-((S)-1-methoxyethyl)pyridin-3-yl)-10,10-dimethyl-5,7-dioxo-1^1-(2,2,2-trifluoroethyl)-6^1,6^2,6^3,6^4,6^5,6^6-hexahydro-1^1H-8-oxa-2(4,2)-morpholina-1(5,3)-indola-6(1,3)-pyridazinacycloundecaphane-4-yl)-3-methylbutanamide]",< 0.01
13,"C=CC(=O)N(C)[C@@H]1CCCN(C(=O)N(C)[C@H](C(=O)N[C@H]2Cc3nc(cs3)-c3ccc4c(c3)c(c(-c3cccnc3[C@H](C)OC)n4CC)CC(C)(C)COC(=O)[C@@H]3CCCN(N3)C2=O)C(C)C)C1 (atropisomer, axis not shown) [Example A382]",< 0.01
14,"C=CC(=O)N(C)C1CCN(C(=O)N(C)[C@H](C(=O)N[C@H]2Cc3nc(cs3)-c3ccc4c(c3)c(c(-c3cccnc3[C@H](C)OC)n4CC)CC(C)(C)COC(=O)[C@@H]3CCCN(N3)C2=O)C(C)C)CC1 (atropisomer, axis not shown) [Example A383]",< 0.01
15,"C=CC(=O)N1C[C@@H](C)N(C(=O)N(C)[C@H](C(=O)N[C@H]2Cc3nc(cs3)-c3ccc4c(c3)c(c(-c3cccnc3[C@H](C)OC)n4CC)CC(C)(C)COC(=O)[C@@H]3CCCN(N3)C2=O)C(C)C)[C@H](C)C1 (atropisomer, axis not shown) [Example A388]",< 0.01
16,"C=CC(=O)N1C[C@@H]2CN(C(=O)N(C)[C@H](C(=O)N[C@H]3Cc4nc(cs4)-c4ccc5c(c4)c(c(-c4cccnc4[C@H](C)OC)n5CC)CC(C)(C)COC(=O)[C@@H]4CCCN(N4)C3=O)C(C)C)C[C@@H]2C1 (atropisomer, axis not shown) [Example A389]",< 0.01
17,"C=CC(=O)N(C)[C@@H]1CCN(C(=O)N(C)[C@H](C(=O)N[C@H]2Cc3nc(cs3)-c3ccc4c(c3)c(c(-c3cccnc3[C@H](C)OC)n4CC)CC(C)(C)COC(=O)[C@@H]3CCCN(N3)C2=O)C(C)C)C1 (atropisomer, axis not shown) [Example A416]",< 0.01
18,"C=CC(=O)N1CC[C@H](C(=O)N(C)[C@H](C(=O)N[C@H]2Cc3coc(n3)-c3ccc4c(c3)c(c(-c3cccnc3[C@H](C)OC)n4CC)CC(C)(C)COC(=O)[C@@H]3CCCN(N3)C2=O)C(C)C)C1 (atropisomer, axis not shown) [Example A468]",0.01 to 0.1
19,"C=CC(=O)N1CCN(C(=O)N(C)[C@H](C(=O)N[C@H]2Cc3nc(cs3)-c3ccc4c(c3)c(c(-c3cccnc3[C@H](C)OC)n4CC)CC(C)(C)COC(=O)[C@@H]3CCCN(N3)C2=O)C(C)C)CC1 (atropisomer, axis not shown) [Example A491]",< 0.01
20,"C=CC(=O)N1CC[C@H](C(=O)N(C)[C@H](C(=O)N[C@H]2Cc3nc(cs3)-c3ccc4c(c3)c(c(-c3cccnc3[C@H](C)OC)n4CC(F)(F)F)CC(C)(C)COC(=O)[C@@H]3CCCN(N3)C2=O)C(C)C)C1 (atropisomer, axis not shown) [Example A502]",< 0.01
21,"C=CC(=O)N1CC[C@H](C(=O)N(C)[C@H](C(=O)N[C@H]2Cc3cc(CF)cc(c3)-c3ccc4c(c3)c(c(-c3cccnc3[C@H](C)OC)n4CC)CC(C)(C)COC(=O)[C@@H]3CCCN(N3)C2=O)C(C)C)C1 (atropisomer, axis not shown) [Example A503]",< 0.01
22,"C=CC(=O)N1CC[C@H](C(=O)N(C)[C@H](C(=O)N[C@H]2Cc3cccc(c3)-c3ccc4c(c3)c(c(-c3cc(CN(C)C)cnc3[C@H](C)OC)n4CC)CC(C)(C)COC(=O)[C@@H]3CCCN(N3)C2=O)C(C)C)C1 (atropisomer, axis not shown) [Example A522]",< 0.01
23,"C=CC(=O)N1CCO[C@@H]2CN(C(=O)N(C)[C@H](C(=O)N[C@H]3Cc4nc(cs4)-c4ccc5c(c4)c(c(-c4cccnc4[C@H](C)OC)n5CC)CC(C)(C)COC(=O)[C@@H]4CCCN(N4)C3=O)C(C)C)C[C@H]21 (atropisomer, axis not shown) [Example A543]",< 0.01
24,"C=CC(=O)N1CCO[C@H]2CN(C(=O)N(C)[C@H](C(=O)N[C@H]3Cc4nc(cs4)-c4ccc5c(c4)c(c(-c4cccnc4[C@H](C)OC)n5CC)CC(C)(C)COC(=O)[C@@H]4CCCN(N4)C3=O)C(C)C)C[C@@H]21 (atropisomer, axis not shown) [Example A544]",< 0.01
25,"C=CC(=O)N1CCOC2(CCN(C(=O)N(C)[C@H](C(=O)N[C@H]3Cc4nsc(n4)-c4ccc5c(c4)c(c(-c4cccnc4[C@H](C)OC)n5CC)CC(C)(C)COC(=O)[C@@H]4CCCN(N4)C3=O)C(C)C)CC2)C1 (atropisomer, axis not shown) [Example A545]",0.01 to 0.1
26,"C=CC(=O)N1CC[C@@H]2[C@H]1CN2C(=O)N(C)[C@H](C(=O)N[C@H]1Cc2nc(cs2)-c2ccc3c(c2)c(c(-c2cccnc2[C@H](C)OC)n3CC)CC(C)(C)COC(=O)[C@@H]2CCCN(N2)C1=O)C(C)C (atropisomer, axis not shown) [Example A546]",< 0.01
27,"CCn1c(-c2cccnc2[C@H](C)OC)c2c3cc(ccc31)-c1cccc(c1)C[C@H](NC(=O)[C@H](C(C)C)N1CO[C@@]3(CCN(C(=O)/C=C/CN(C)C)C3)C1=O)C(=O)N1CCC[C@H](N1)C(=O)OCC(C)(C)C2 (atropisomer, axis not shown) [Example A558]",0.01 to 0.1
28,"CO[C@@H](COC1CN(C(=O)C#CC(C)(C)N(C)C)C1)C(=O)N[C@H]1Cc2coc(n2)-c2ccc3c(c2)c(c(-c2cccnc2[C@H](C)OC)n3CC(F)(F)F)CC(C)(C)COC(=O)[C@@H]2CCCN(N2)C1=O (atropisomer, axis not shown) [Example A579]",< 0.01

# Same assay, conditions: Homo sapiens, NCI-H358, 120 h, read-out: Additional H358 Cell Viability assay data (K-Ras G12C, IC50, uM), NCI-H358, 5-day treatment; class symbols
row,SMILES,IC50 [µM]
1,"C=CC(=O)N1CCO[C@H]2CN(C(=O)N(C)[C@H](C(=O)N[C@H]3Cc4cc(C(F)F)cc(n4)-c4ccc5c(c4)c(c(-c4cccnc4[C@H](C)OC)n5CC(F)(F)F)CC(C)(C)COC(=O)[C@@H]4CCCN(N4)C3=O)C(C)C)C[C@H]21 (atropisomer, axis not shown) [Example A540]",< 0.01
2,"CCn1c(-c2cccnc2[C@H](C)OC)c2c3cc(ccc31)-c1cccc(c1)C[C@H](NC(=O)[C@H](C(C)C)N1CC[C@@]3(CCN(C(=O)C#C[C@H]4COCCN4C)C3)C1=O)C(=O)N1CCC[C@H](N1)C(=O)OCC(C)(C)C2 (atropisomer, axis not shown) [Example A551]",< 0.01
